# Measurements as given in patent US7365066B2, “Pyrazolopyridine derivatives as pharmaceutical agents” (Eli Lilly and Company, priority 2002, dated 2008).
# Assays:
# [1] = molecular target: T1, TGF-beta Type I Receptor Kinase (RIT204D) (Homo sapiens, UniProt P36897, T204D); assay: TGF-β Type I receptor (RIT204D) in vitro kinase reaction; format: biochemical; conditions: RIT204D kinase domain, 4 uM ATP, 30° C. for 1 hr; read-out: IC50, inhibition of TGF-beta Type I Receptor Kinase
# T1 construct: The 6×-HIS tagged cytoplasmic kinase domain of each receptor was expressed and purified from Sf9 insect cell lysates; 6xHis; made in house; host or cells: Sf9 insect cells
# T1 sequence (P36897 148-503 T204D limits assumed): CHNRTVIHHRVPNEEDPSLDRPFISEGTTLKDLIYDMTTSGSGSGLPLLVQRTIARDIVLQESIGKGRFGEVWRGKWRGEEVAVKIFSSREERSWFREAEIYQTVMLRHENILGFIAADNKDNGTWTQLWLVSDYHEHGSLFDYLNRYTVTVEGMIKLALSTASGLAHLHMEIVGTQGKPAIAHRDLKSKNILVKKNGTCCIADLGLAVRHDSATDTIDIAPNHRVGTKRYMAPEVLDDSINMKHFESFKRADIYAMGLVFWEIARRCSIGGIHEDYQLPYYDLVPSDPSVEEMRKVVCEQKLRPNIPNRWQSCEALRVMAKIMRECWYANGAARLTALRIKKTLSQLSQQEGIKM
# Experimental: (§1) For TGF-β Type I (RIT204D) and Type II (RII WT) Receptor Kinases:
# (§2) The 6×-HIS tagged cytoplasmic kinase domain of each receptor was expressed and purified from Sf9 insect cell lysates as briefly described below:
# (§3) Cell pellets after 48-72 hrs of infection were lysed in lysis buffer (LB: 50 mM Tris pH 7.5, 150 mM NaCl, 50 mM NaF, 0.5% NP40 with freshly added 20 mM β-mercaptoethanol, 10 mM imidazole, 1 mM PMSF, 1×EDTA-free Complete Protease Inhibitor (Boehringer Mannheim).
# (§4) Cell lysates were clarified by centrifugation and 0.45 uM filtered prior to purification by Ni/NTA affinity chromatography (Qiagen).
# (§5) Equilibrate with 10 CV of LB, load sample, wash with 10 CV RIPA buffer (50 mM Tris pH 7.5, 150 mM NaCl, 1% NP40, 1 mM EDTA, 0.25% sodium deoxycholate, added fresh 20 mM β-mercaptoethanol, 1 mM PMSF), wash with 10 CV LB, wash with 10 CV 1× KB (50 mM Tris pH 7.5, 150 mM NaCl, 4 mM MgCl2, 1 mM NaF, 2 mM βmercaptoethanol), elute with a linear gradient of 1× KB containing 200 mM Imidazole.
# (§6) Both enzymes were approximately 90% pure and had autophosphorylation activity.
# (§7) Reactions: 170-200 nM enzyme in 1× KB, compound dilution series in 1× KB/16% DMSO (20 uM to […] final concentration with 4% DMSO final concentration), reactions started by adding ATP mix (4 uM ATP/1 uCi ^33P-γ-ATP final concentrations) in 1× KB.
# (§8) Reactions were incubated at 30° C. for 1 hr RIT204D or 40 min for RII WT. Reactions were stopped and quantitated using standard TCA/BSA precipitation onto Millipore FB glass fiber filter plates and by liquid scintillation counting on a MicroBeta JET.
# [2] = molecular target: T2, TGF-beta Type II Receptor Kinase (RII WT) (Homo sapiens, UniProt P37173); assay: TGF-β Type II receptor (RII WT) in vitro kinase reaction; format: biochemical; conditions: RII WT kinase domain, 4 uM ATP, 30° C. for 40 min; read-out: IC50, inhibition of TGF-beta Type II Receptor Kinase
# T2 construct: The 6×-HIS tagged cytoplasmic kinase domain of each receptor was expressed and purified from Sf9 insect cell lysates; 6xHis; made in house; host or cells: Sf9 insect cells
# T2 sequence (P37173 188-567 limits assumed): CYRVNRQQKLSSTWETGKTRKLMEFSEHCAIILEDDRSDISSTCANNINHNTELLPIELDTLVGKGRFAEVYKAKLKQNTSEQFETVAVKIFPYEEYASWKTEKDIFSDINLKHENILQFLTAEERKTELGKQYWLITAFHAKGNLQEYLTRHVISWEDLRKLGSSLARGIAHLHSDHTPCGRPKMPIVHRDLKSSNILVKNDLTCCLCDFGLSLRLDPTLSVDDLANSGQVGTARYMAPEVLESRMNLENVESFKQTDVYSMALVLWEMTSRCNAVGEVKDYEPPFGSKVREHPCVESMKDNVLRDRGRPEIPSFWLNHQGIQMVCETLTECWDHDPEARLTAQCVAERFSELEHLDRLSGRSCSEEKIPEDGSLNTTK
# Experimental: as §1, §2, §3, §4, §5, §6, §7, §8
# [3] = system: TGF-β dependent luciferase production (p3TP-Lux reporter, Mv1Lu C1 cells); assay: Mv1Lu p3TP-Lux assay; format: cell-based; conditions: 10 pM TGF-β1, 16-20 hrs, read-out: IC50, inhibition of TGF-beta dependent luciferase production
# From the text: A stable Mv1Lu clone (C1) containing the p3TP-Lux reporter was created by standard transfection and puromycin selection protocols. This stable clone was used to screen the example compounds for their ability to inhibit TGF-β dependent luciferase production as briefly described below: • 1. Plated Mv1Lu C1 cells in Wallac™ Black Isoplates. • 2. Allowed cells to adhere overnight. • 3. Removed media and replaced with 0.5% FBS DMEM media. • 4. Added the compound dilution series in 0.5% FBS/DMEM containing 1% DMSO such that the final compound concentration ranged from 20 uM to 0.1 nM and the final DMSO concentration was 0.2%. • 5. Incubated at 37° C./5% CO2 for 2 hrs. • 6. Added 0.5% FBS/DMEM as control or TGF-β1 diluted. in 0.5% FBS/DMEM (final concentration of 10 pM) to the −/+TGF-β wells respectively. • 7. Incubated for 16-20 hrs. at 37° C./5% CO2. • 8. Removed media and rinsed 1× with PBS. • 9. Removed PBS and lysed the cells with 1× Passive. Lysis Buffer (Promega) at room temperature. • 10. Counted relative luciferase activity on the MicroBeta JET by injecting Luciferase Assay Reagent II (PROMEGA).
# The use of the above assay in measuring TGF-β responsive activity is described in Wrana, et al. Cell 71: 1003-1014 (1992).
# [4] = molecular target: T3, p38α/SAPK2α (Homo sapiens, UniProt Q16539); assay: p38α in vitro kinase assay; format: biochemical; conditions: 5 nM p38α, 62.5 uM EGFR substrate, 100 uM ATP, 30° C. for 40 min
# T3 construct: purchased Upstate Biotechnology 14-251
# T3 sequence (Q16539 whole entry): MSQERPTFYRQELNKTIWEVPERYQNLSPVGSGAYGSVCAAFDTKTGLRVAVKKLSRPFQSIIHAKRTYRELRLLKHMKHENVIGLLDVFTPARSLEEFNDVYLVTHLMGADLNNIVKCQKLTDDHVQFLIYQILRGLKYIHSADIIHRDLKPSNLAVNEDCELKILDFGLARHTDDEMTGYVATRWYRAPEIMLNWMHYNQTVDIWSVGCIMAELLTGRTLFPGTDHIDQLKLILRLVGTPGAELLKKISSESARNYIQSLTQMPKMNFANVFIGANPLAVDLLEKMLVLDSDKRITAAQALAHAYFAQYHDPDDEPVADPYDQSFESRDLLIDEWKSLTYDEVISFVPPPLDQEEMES
# Experimental: Active p38α/SAPK2α was purchased from Upstate Biotechnology (cat#14-251). A known p38α substrate from EGFR was used in the assay (Young, et al. (1997) JBC 272:12116-12121).
# Reactions were performed in 1× kinase buffer (25 mM Tris-HCl pH 7.5, 5 mM β-glycerophosphate, 2 mM DTT, 0.1 mM Na3VO4, 10 mM MgCl2, 1 uM Microcystin) with 5 nM p38α, 62.5 uM substrate, 40 uM to 0.2 nM compound dilution series in 1×KB/16% DMSO (final 4% DMSO concentration). Reactions were started by addition of 100 uM ATP (final concentration) with 1 uCi ^33P-γ-ATP in 1×KB and incubated at 30° C. for 40 min. Reactions were stopped with H3PO4 and quantitated on Millipore PH phosphocellulose filter plates by liquid scintillation counting on a MicroBeta JET.
Compound,IC50 [1] [nM],IC50 [2] [µM],IC50 [3] [nM],IC50 [4] [nM]
"CCc1cccc(-c2nn3ccccc3c2-c2ccnc3cc(Cl)c(Cl)cc23)n1 [Example 43, 6,7-Dichloro-4-[2-(6-ethyl-pyridin-2-yl)-pyrazolo[1,5-a]pyridin-3-yl]-quinoline]",152,3.17,120,–
"Cc1cccc(-c2nn3ccccc3c2-c2ccnc3cc(Cl)c(Cl)cc23)n1 [Example 45, 6,7-Dichloro-4-[2-(6-methyl-pyridin-2-yl)-pyrazolo[1,5-a]pyridin-3-yl]-quinoline]",–,–,–,390
"CCc1cccc(-c2nn3ccccc3c2-c2ccc(F)c3ccccc23)n1 [Example 47, 2-(6-Ethyl-pyridin-2-yl)-3-(4-fluoro-naphthalen-1-yl)-pyrazolo[1,5-a]pyridine]",175,5.1,100,–
"c1ccc(-c2nn3ccccc3c2-c2ccncc2)nc1 [Example 53, 3-Pyridin-4-yl-2-pyridin-2-yl-pyrazolo[1,5-a]pyridine]",806,20,487,–
"CCCCc1ccc(-c2nn3ccccc3c2-c2ccnc3ccccc23)nc1 [Example 56, 4-[2-(5-Butyl-pyridin-2-yl)-pyrazolo[1,5-a]pyridin-3-yl]-quinoline]",102,0.377,135,–
"Cc1cccc(-c2nn3ccccc3c2-c2ccnc3cc(C(=O)NCCN(C)C)ccc23)n1 [Example 78, 4-[2-(6-Methyl-pyridin-2-yl)-pyrazolo[1,5-a]pyridin-3-yl]-quinoline-7-carboxylic acid(2-dimethylamino-ethyl)-amide]",–,–,–,233
"Cc1cccc(-c2nn3ccccc3c2-c2ccnc3cc(OCCCN(C)C)ccc23)n1 [Example 117, Dimethyl-(3-{4-[2-(6-methyl-pyridin-2-yl)-pyrazolo[1,5-a]pyridin-3-yl]-quinolin-7-yloxy}-propyl)-amine]",–,–,–,78
